# Activity calls are given as the source filed them.
# Legend:
# Format in all cases: functional
# [1] = target: T1, Corticotropin-releasing factor receptor 2/Corticotropin-releasing factor-binding protein (Homo sapiens, UniProt P24387+Q13324); assay: activators of CRF receptor 2 with binding protein – uHTS hits, confirmation (AID 602473); conditions: read-out: EC50_Mean
# T1 sequence (Q13324 whole entry): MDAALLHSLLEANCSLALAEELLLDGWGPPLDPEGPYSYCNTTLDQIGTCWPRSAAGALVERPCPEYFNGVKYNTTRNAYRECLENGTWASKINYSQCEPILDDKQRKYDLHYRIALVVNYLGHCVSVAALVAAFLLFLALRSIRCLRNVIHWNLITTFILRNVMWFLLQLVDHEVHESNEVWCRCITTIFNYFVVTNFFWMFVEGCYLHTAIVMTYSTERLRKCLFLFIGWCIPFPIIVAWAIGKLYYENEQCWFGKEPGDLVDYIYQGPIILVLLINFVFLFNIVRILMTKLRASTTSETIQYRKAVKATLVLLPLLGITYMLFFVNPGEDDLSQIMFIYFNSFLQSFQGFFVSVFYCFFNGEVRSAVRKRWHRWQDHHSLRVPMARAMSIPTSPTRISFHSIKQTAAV
# T1 sequence (P24387 whole entry): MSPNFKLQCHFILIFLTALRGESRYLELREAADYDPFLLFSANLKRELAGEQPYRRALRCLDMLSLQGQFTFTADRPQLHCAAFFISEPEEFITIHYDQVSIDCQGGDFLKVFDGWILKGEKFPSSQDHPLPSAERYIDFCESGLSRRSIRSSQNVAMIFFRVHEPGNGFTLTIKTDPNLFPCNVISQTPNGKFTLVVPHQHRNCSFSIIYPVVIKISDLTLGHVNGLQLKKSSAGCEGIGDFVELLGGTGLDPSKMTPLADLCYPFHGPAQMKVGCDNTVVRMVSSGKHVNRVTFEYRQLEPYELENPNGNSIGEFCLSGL
# [2] = target: T2, Sentrin-specific protease 6 (Homo sapiens, UniProt Q9GZR1); assay: SAR Analysis of small molecule inhibitors of Sentrin-specific protease 6 (SENP6) using a Luminescent assay. [Related pubchem assays (depositor defined):AID2582, AID2599]
# T2 sequence (Q9GZR1 whole entry): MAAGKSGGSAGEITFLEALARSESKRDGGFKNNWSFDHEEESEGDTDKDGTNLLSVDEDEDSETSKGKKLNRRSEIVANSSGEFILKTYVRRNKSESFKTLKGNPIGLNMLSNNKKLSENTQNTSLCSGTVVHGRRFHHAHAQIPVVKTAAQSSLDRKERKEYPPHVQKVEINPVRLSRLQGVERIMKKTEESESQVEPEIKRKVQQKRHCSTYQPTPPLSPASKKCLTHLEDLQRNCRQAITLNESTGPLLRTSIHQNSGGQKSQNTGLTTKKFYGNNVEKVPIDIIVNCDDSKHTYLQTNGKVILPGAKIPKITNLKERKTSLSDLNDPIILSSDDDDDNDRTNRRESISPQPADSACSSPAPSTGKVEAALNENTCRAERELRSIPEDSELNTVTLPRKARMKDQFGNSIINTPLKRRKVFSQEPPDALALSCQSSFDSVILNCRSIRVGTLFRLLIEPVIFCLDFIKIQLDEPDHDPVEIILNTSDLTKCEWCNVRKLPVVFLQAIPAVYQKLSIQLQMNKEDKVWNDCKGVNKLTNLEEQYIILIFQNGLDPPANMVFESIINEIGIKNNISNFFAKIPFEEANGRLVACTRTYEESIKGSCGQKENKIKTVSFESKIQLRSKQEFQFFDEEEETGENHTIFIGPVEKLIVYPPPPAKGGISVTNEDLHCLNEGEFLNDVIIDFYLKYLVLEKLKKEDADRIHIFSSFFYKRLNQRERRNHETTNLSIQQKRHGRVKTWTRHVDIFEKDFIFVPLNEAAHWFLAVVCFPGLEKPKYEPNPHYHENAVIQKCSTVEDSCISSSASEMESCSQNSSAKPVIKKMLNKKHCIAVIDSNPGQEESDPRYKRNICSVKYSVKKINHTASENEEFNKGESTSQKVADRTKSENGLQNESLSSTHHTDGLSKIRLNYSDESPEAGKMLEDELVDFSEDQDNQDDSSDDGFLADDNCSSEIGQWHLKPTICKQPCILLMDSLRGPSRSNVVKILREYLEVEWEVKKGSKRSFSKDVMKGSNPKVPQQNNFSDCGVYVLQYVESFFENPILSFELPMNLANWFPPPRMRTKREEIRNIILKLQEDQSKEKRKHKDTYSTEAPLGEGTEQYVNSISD
# [3] = target: Serine/threonine-protein kinase pim-2 (Homo sapiens, UniProt Q9P1W9);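 note: value comes from a broad kinase panel profiling study in which PIM2 was one of the panel members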
# [4] = target: MAP kinase-activated protein kinase 5 (Homo sapiens, UniProt Q8IW41);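 note: measured as one member of a kinome panel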
# [5] = target: Interleukin-1 receptor-associated kinase 4 (Homo sapiens, UniProt Q9NWZ3)
# [6] = target: Tyrosine-protein kinase Lyn (Homo sapiens, UniProt P07948);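 note: lyn as one member of a kinase panel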
# Chain of Tyrosine-protein kinase Lyn (P07948 whole entry): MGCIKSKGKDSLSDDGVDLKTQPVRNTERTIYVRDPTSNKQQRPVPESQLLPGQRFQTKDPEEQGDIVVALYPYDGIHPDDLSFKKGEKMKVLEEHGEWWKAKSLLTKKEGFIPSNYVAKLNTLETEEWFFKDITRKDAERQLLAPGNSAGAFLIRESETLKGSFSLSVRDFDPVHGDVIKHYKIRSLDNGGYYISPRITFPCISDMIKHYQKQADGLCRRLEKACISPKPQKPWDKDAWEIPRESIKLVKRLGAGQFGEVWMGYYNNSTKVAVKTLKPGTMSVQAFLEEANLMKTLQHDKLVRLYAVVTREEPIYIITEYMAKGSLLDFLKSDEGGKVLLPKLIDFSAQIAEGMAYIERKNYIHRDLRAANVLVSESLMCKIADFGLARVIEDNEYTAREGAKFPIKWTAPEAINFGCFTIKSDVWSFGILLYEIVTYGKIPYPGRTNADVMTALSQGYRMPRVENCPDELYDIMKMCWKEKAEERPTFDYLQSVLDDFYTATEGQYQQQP
# Chain of Serine/threonine-protein kinase pim-2 (Q9P1W9 whole entry): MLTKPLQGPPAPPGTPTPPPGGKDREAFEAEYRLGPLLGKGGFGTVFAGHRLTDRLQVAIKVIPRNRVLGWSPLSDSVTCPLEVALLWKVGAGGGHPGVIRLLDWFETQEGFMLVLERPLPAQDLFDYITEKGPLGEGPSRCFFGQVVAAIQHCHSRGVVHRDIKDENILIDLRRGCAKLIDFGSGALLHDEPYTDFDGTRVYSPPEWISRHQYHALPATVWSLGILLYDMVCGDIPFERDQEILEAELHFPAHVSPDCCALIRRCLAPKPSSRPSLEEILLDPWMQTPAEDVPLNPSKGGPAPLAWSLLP
# Chain of Interleukin-1 receptor-associated kinase 4 (Q9NWZ3 whole entry): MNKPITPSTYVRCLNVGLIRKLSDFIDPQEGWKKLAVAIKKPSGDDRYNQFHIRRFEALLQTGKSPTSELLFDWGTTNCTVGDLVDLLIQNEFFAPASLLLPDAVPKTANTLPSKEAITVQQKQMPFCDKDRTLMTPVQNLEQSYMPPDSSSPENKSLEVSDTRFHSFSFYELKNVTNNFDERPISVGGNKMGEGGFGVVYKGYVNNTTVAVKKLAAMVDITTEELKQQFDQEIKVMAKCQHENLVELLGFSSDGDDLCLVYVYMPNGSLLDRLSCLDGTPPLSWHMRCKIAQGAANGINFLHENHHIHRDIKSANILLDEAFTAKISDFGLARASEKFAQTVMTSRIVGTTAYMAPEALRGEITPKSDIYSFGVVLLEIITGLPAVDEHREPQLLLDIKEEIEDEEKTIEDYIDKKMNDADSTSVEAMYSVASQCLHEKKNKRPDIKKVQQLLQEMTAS
# Chain of MAP kinase-activated protein kinase 5 (Q8IW41 whole entry): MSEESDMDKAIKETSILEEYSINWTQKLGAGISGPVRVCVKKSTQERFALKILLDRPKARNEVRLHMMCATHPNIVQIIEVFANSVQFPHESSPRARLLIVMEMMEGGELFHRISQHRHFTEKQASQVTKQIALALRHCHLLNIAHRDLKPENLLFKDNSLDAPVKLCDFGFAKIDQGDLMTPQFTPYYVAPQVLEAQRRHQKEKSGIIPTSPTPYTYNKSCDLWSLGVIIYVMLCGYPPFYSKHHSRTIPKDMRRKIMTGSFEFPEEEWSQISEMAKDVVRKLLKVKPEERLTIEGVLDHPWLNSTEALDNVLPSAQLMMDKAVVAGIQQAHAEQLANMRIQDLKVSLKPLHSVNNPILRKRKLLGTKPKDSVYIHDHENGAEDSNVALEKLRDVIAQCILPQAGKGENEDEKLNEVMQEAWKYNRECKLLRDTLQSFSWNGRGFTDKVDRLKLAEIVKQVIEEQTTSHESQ
compound,measurement,setting,value
O=C(COC(=O)c1ccc([N+](=O)[O-])s1)Nc1cccc(S(=O)(=O)/N=C2/CCCCCN2)c1,EC50,[1],> 53000 nM (inactive)
COc1ccc(C(C[N+](=O)[O-])c2c(C)[nH]n(-c3ccccc3)c2=O)cc1 (stereo unspecified),IC50,[2],9410 nM (active)
Oc1c2ccccc2c2c3c(cccc13)N=N2 [SP-600125],Ki,[3],316 nM (active)
same,Ki,[4],> 1580 nM (inactive)
same,Ki,[5],158 nM (active)
same,Ki,[6],1000 nM (active)

# Reference: ChEMBL document CHEMBL1201862, “PubChem BioAssay data set” (2004)
